In patent US20260242745A1, “TISSUE ENGINEERED TUBE USING STEM CELL, AND METHOD FOR PRODUCING SAME” (TOHOKU UNIVERSITY, priority 2023, published 2026):
Bridges are numbered along the chain shown (N, C = ends). Where no end group is shown, it is not given here.

Legend:
[1] = system: artificial blood vessels produced from 201B7 cells (iPS cells derived from healthy subjects); test: Contraction of artificial blood vessels produced from 201B7 iPS cells in response to physiologically active substances; assay type: cell-based, human; settings: for contraction rate after perfusion culture: 201B7 co-culture, immediately after start of perfusion culture vs third day of perfusion, FIG. 8B; for contraction reaction: artificial blood vessel of smooth muscle cells alone (201B7 vSMC) compared with 201B7 co-culture with endothelial cells, FIG. 8A; for concentration dependence of contraction rate: iPS cells derived from healthy subjects, U46619 0.05 nM to 0.5 nM, endothelin-1 100 nM to 1000 nM, n=5, FIG. 8C; for contraction reaction (same as with U46619): artificial blood vessels produced from 201B7 cells, physiological vasoconstrictors
Method: Next, it was analyzed whether the produced tissue engineered tube reproduces physiological reactions such as contraction and expansion with respect to a physiologically active substance. First, regarding artificial blood vessels produced from 201B7 cells, an artificial blood vessel of only smooth muscle cells (201B7 vSMC) and an artificial blood vessel obtained by seeding and co-culturing blood vessel endothelial cells induced to differentiate from 201B7 in an artificial blood vessel lumen (201B7 co-culture) were produced, and the contraction reaction due to U46619 and KCl was analyzed (FIG. 8A). U46619 is a stable synthetic analog of prostaglandin PGH2 and has an action of inducing blood vessel contraction as a thromboxane A2 receptor agonist. KCl is known to induce blood vessel contraction by membrane potential change. Since an individual difference may occur under a normal contraction amount, U46619 relative is a normalized value obtained by dividing the contraction amount when U46619 is applied by the contraction amount when KCl is applied, which indicates the maximum contraction force. […] NO is a vasodilator and is known to be released from blood vessel endothelial cells. Therefore, it is recognized that the produced artificial blood vessel reproduces the physiological mechanism. […] In the following experiments, artificial blood vessels co-cultured with endothelial cells were used unless otherwise specified.
In order to maintain a more physiological environment, perfusion culture was performed to examine whether the contraction rate was improved (FIG. 8B). Immediately after the start of perfusion culture, U46649 or KCl was applied to an artificial blood vessel produced from 201B7 cells (201B7 co-culture) on the third day of perfusion to analyze the contraction rate. […] It is known that blood vessel tissues change in phenotype, orientation, and the like and mature due to shear stress and blood pressure caused by perfusion culture.
It was analyzed whether the contraction of the artificial blood vessel with respect to U46619 and endothelin-1 depended on the concentration. Artificial blood vessels were produced using iPS cells derived from healthy subjects, and the contraction rates were measured while changing the concentrations of U46619 (0.05 nM to 0.5 nM) and endothelin-1 (100 nM to 1000 nM) (n=5). […] Therefore, it is recognized that the produced artificial blood vessels has have physiological properties.

[2] = system: artificial blood vessels produced from iPS cells derived from Werner syndrome patients (WS2-C5 co-culture); test: Contraction of artificial blood vessels produced from Werner syndrome patient iPS cells compared with those from healthy subjects; assay type: cell-based, human; settings: for contraction against stimulation, WS2-C5 co-culture vs 201B7 co-culture: n=4, FIG. 9A; for relative contraction rate, Werner derived vs WT derived iPSC blood vessels: 200 nM U46619 or 100 nM angiotensin II, contraction amount with 100 mM KCl as 100%, FIG. 9B
Method: Next, reactions to U46619 and KCl were analyzed using artificial blood vessels produced from Werner syndrome patients iPS (FIG. 9A). iPS cells derived from healthy subjects and Werner syndrome patients were induced to differentiate into smooth muscle cells and blood vessel endothelial cells to produce artificial blood vessels as described above, and contraction with respect to U46619 and KCl was analyzed.
In addition to U46619, the relative contraction rate was also determined for angiotensin II (FIG. 9B). The artificial blood vessel was contracted by 200 nM U46619 or 100 nM angiotensin II, and the relative contraction rate was calculated with the contraction amount when 100 mM KCl was applied as 100%. […] Hereinafter, the artificial blood vessels produced using iPS cells derived from healthy subjects may be referred to as WT derived iPSC blood vessels, and the artificial blood vessels produced using iPS cells derived from Werner syndrome patients may be referred to as Werner derived iPSC blood vessels.
Artificial blood vessels were produced from iPS cells derived from healthy subjects and Werner syndrome patients and subjected to perfusion culture, and the contraction by U46619 was analyzed (FIG. 9C). […] This is considered to be caused by a decrease in NO production ability of blood vessel endothelial cells derived from iPS cells of Werner syndrome patients.

With `[Cl-].[K+]` [KCl] the “contraction rate after perfusion culture” value [1] was “an improvement in contraction rate due to perfusion culture was observed”, the contraction reaction [1] was “high contraction was observed” and the “contraction against stimulation, WS2-C5 co-culture vs 201B7 co-culture” value [2] was “tended to contract more strongly”.
In the case of `CCCCC[C@H](O)/C=C/[C@@H]1[C@@H](C/C=C\CCCC(=O)O)[C@H]2CO[C@@H]1C2` [U46619], the “contraction rate after perfusion culture” value [1] is reported as “an improvement in contraction rate due to perfusion culture was observed”, the contraction reaction [1] is reported as “high contraction was observed” and the “concentration dependence of contraction rate” value [1] is reported as “contracted in a concentration-dependent manner”. For the same molecule, the “relative contraction rate, Werner derived vs WT derived iPSC blood vessels” value [2] was “exhibited stronger contraction force”, the “contraction against stimulation, WS2-C5 co-culture vs 201B7 co-culture” value [2] was “tended to contract more strongly” and the “contraction after perfusion culture, Werner derived vs WT derived iPSC blood vessels” value ([2]; perfusion culture, FIG. 9C) was “an increase in contraction force was observed”.
For “angiotensin II (DRVYIHPF; Angiotensin-2; UniProt P01019 25-32, looked up) [physiological vasoconstrictor]”, the “contraction reaction (same as with U46619)” value [1] was “the same contraction reaction occurs” and the “relative contraction rate, Werner derived vs WT derived iPSC blood vessels” value [2] was “exhibited stronger contraction force”.
With “endothelin-1 (CSCSSLMDKECVYFCHLDIIW; disulfide 1-15, 3-11; ends not checked; UniProt P05305 53-73, looked up) [physiological vasoconstrictor]” the “contraction reaction (same as with U46619)” value [1] was “the same contraction reaction occurs” and the “concentration dependence of contraction rate” value [1] was “contracted in a concentration-dependent manner”.
